Earlier results in patent US20230157980A1, “METHODS FOR TREATING HEARING LOSS INCIDENT TO COCHLEAR IMPLANT SURGERY” (HOUGH EAR INSTITUTE, priority 2018, published 2023).

Tested on: hearing loss caused by cochlear implantation

CC(=O)N[C@@H](CS)C(=O)O [NAC, N-acetylcysteine]
hearing improvement (local NAC, 32 kHz, 4-week post insertion time point): barely significant hearing improvement
protective effect on hearing (local NAC, lower frequencies (below 32 kHz)): no protective effect
effect on improving hearing (local administration of NAC): only modest and transient effects
